Laboratory results taken from patent publication US12365655B2, “Compounds” (CTXT PTY LTD, priority 2018, dated 2025).

Assays:
MOZ-KAT6A = MOZ-KAT6A (Homo sapiens, UniProt Q92794, A567V); assay: Acetyltransferase biochemical assay (AlphaScreen), KAT6A
TIP60-KAT5 = TIP60-KAT5 (Homo sapiens, UniProt Q92993); assay: Acetyltransferase biochemical assay (AlphaScreen), KAT5
HBO-KAT7 = HBO-KAT7 (Homo sapiens, UniProt O95251); assay: Acetyltransferase biochemical assay (AlphaScreen), KAT7
HBO-KAT7, sequence (O95251 with tags, fused parts or gaps): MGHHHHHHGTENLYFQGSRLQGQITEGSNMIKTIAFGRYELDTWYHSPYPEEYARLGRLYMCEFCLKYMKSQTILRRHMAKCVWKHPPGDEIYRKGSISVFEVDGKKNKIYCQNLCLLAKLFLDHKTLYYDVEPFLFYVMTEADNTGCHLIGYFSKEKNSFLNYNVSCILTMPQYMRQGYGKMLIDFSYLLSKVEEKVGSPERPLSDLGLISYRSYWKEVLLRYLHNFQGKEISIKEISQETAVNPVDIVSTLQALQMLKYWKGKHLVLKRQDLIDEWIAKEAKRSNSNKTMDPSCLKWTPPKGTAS

TIP60-KAT5, sequence (Q92993 with tags, fused parts or gaps isoform Q92993-2): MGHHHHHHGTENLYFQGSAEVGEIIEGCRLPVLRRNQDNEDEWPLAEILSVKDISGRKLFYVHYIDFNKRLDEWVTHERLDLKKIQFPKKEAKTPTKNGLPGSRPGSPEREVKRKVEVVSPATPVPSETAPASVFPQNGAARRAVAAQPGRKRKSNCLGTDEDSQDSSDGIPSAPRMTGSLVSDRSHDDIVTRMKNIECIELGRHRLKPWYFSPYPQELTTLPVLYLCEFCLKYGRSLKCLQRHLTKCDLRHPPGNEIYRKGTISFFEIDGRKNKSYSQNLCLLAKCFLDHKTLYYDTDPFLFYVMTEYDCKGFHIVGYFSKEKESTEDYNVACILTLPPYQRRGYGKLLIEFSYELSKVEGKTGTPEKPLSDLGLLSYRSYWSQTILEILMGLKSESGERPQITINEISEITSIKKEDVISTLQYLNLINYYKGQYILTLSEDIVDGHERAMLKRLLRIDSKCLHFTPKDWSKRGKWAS
MOZ-KAT6A, sequence (Q92794 with tags, fused parts or gaps A567V): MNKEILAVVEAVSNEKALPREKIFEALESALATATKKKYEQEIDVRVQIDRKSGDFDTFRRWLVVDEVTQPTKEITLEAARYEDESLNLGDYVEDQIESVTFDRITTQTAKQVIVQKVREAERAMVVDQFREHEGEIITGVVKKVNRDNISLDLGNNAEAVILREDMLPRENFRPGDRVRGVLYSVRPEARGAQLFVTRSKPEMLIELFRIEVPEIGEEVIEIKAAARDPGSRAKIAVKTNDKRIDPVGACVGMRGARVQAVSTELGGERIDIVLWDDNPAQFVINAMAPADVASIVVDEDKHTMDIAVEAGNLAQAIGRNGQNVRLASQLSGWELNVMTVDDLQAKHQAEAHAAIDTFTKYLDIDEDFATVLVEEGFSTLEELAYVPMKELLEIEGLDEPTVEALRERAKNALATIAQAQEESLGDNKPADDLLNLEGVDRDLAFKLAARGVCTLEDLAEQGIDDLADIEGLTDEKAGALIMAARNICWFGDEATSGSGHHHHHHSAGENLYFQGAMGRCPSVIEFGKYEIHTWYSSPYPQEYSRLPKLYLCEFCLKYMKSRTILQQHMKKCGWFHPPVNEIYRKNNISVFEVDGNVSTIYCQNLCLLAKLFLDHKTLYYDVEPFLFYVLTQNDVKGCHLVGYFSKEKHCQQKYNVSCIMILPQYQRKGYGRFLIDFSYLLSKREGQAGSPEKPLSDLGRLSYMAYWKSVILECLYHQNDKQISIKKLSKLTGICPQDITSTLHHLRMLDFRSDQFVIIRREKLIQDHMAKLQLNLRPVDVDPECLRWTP

| IC50 (MOZ-KAT6A) | IC50 (TIP60-KAT5) | IC50 (HBO-KAT7) | Compound |
| --- | --- | --- | --- |
| 11.8 µM | 27.7 µM | 14.6 µM | O=S(=O)(Nc1noc2cccc(Cl)c12)c1ccc(Oc2ccc(F)cc2)cc1 [Example 17, N-(4-chlorobenzo[d]isoxazol-3-yl)-4-(4-fluorophenoxy) benzenesulfonamide] |
| 5.21 µM | 38.9 µM | 6.3 µM | CC(C)c1ccc(S(=O)(=O)Nc2noc3cccc(Cl)c23)cc1 [Example 22, N-(4-chlorobenzo [d]isoxazol-3-yl)-4-isopropylbenzene sulfonamide] |
| 21.8 µM | 72.9 µM | 23.9 µM | O=S(=O)(Nc1noc2cccc(Cl)c12)c1ccc(OC(F)(F)F)cc1 [Example 23, N-(4-chlorobenzo [d]isoxazol-3-yl)-4-(trifluoromethoxy) benzenesulfonamide] |
| > 125 µM | > 125 µM | 33.9 µM | CC(C)Oc1ccc(S(=O)(=O)Nc2noc3cccc(Cl)c23)cc1 [Example 24, N-(4-chlorobenzo [d]isoxazol-3-yl)-4-isopropoxybenzene sulfonamide] |
| 33.2 µM | 120 µM | 41.9 µM | CC(C)(C)c1ccc(S(=O)(=O)Nc2noc3cccc(Cl)c23)cc1 [Example 25, 4-(tert-butyl)-N-(4-chlorobenzo[d]isoxazol-3-yl)benzenesulfonamide] |
| 71.5 µM | > 125 µM | 32.1 µM | Cc1ccc(S(=O)(=O)Nc2noc3cccc(Cl)c23)cc1 [Example 27, N-(4-chlorobenzo [d]isoxazol-3-yl)-4-methylbenzenesulfonamide] |
| 117 µM | > 125 µM | 54.8 µM | O=S(=O)(Nc1noc2cccc(Cl)c12)c1ccc(-n2cccn2)cc1 [Example 28, N-(4-chlorobenzo [d]isoxazol-3-yl)-4-(1H-pyrazol-1-yl)benzenesulfonamide] |
| > 125 µM | > 125 µM | 94.1 µM | O=S(=O)(Nc1noc2cccc(Cl)c12)c1c(F)cccc1F [Example 29, N-(4-chlorobenzo [d]isoxazol-3-yl)-2,6-difluorobenzene sulfonamide] |
| 89.5 µM | > 125 µM | 11.5 µM | O=S(=O)(Nc1noc2cccc(Cl)c12)c1ccccc1F [Example 30, N-(4-chlorobenzo [d]isoxazol-3-yl)-2-fluorobenzenesulfonamide] |
| 36.1 µM | > 125 µM | 53.6 µM | Cc1ccc(S(=O)(=O)Nc2noc3cccc(Cl)c23)cc1Cl [Example 31, 3-chloro-N-(4-chlorobenzo[d]isoxazol-3-yl)-4-methylbenzenesulfonamide] |
| 31.1 µM | 56 µM | 14.9 µM | O=S(=O)(Nc1noc2cccc(Cl)c12)c1ccc(Br)cc1OC(F)(F)F [Example 32, 4-bromo-N-(4-chlorobenzo[d]isoxazol-3-yl)-2-(trifluoromethoxy) benzenesulfonamide] |
| 6.85 µM | 90.5 µM | 11.4 µM | COc1cc(C)c(C)cc1S(=O)(=O)Nc1noc2cccc(Cl)c12 [Example 33, N-(4-chlorobenzo [d]isoxazol-3-yl)-2-methoxy-4,5-dimethylbenzenesulfonamide] |
| > 125 µM | > 125 µM | 31.5 µM | O=S(=O)(Nc1noc2cccc(Cl)c12)c1ccc(OC(F)F)cc1 [Example 34, N-(4-chlorobenzo [d]isoxazol-3-yl)-4-(difluoromethoxy) benzenesulfonamide] |
| 4.63 µM | 33.8 µM | 8.75 µM | O=S(=O)(Nc1noc2cccc(Cl)c12)c1ccc(S(F)(F)(F)(F)F)cc1 [Example 35, N-(4-chlorobenzo [d]isoxazol-3-yl)-4-(pentafluoro-λ^6-sulfanyl)benzene sulfonamide] |
| 17.7 µM | 39 µM | 26.3 µM | O=S(=O)(Nc1noc2cccc(Cl)c12)c1cccc(S(F)(F)(F)(F)F)c1 [Example 36, N-(4-chlorobenzo [d]isoxazol-3-yl)-3-(pentafluoro-λ^6-sulfanyl)benzene sulfonamide] |
| 24.8 µM | > 125 µM | 114 µM | COc1cc(C)c(C(C)C)cc1S(=O)(=O)Nc1noc2cccc(Cl)c12 [Example 37, N-(4-chlorobenzo [d]isoxazol-3-yl)-5-isopropyl-2-methoxy-4-methylbenzenesulfonamide] |
| 27.5 µM | 80.1 µM | 6.7 µM | O=S(=O)(Nc1noc2cccc(Cl)c12)c1ccccc1OC(F)F [Example 38, N-(4-chlorobenzo [d]isoxazol-3-yl)-2-(difluoromethoxy) benzenesulfonamide] |
| 38.2 µM | > 125 µM | 10.1 µM | O=S(=O)(Nc1noc2cccc(Cl)c12)c1cccc2c1OCCO2 [Example 39, N-(4-chlorobenzo [d]isoxazol-3-yl)-2,3-dihydrobenzo[b][1,4]dioxine-5-sulfonamide] |
| 2.13 µM | 121 µM | 19.9 µM | COc1ccc(C(C)(C)C)cc1S(=O)(=O)Nc1noc2cccc(Cl)c12 [Example 40, 5-(tert-butyl)-N-(4-chlorobenzo[d]isoxazol-3-yl)-2-methoxy benzenesulfonamide] |

| IC50 (MOZ-KAT6A) | IC50 (TIP60-KAT5) | IC50 (HBO-KAT7) | Compound |
| --- | --- | --- | --- |
| 4.27 µM | 65.1 µM | 11.8 µM | COc1ccc(C(C)C)cc1S(=O)(=O)Nc1noc2cccc(Cl)c12 [Example 41, N-(4-chlorobenzo [d]isoxazol-3-yl)-5-isopropyl-2-methoxybenzene sulfonamide] |
| 5.95 µM | 11.6 µM | 8.38 µM | O=S(=O)(Nc1noc2cccc(Cl)c12)c1ccc2c(c1)CCCC2 [Example 42, N-(4-chlorobenzo [d]isoxazol-3-yl)-5,6,7,8-tetrahydronaphthalene-2-sulfonamide] |
| 5.97 µM | 23 µM | 12.9 µM | O=S(=O)(Nc1noc2cccc(Cl)c12)c1cccc(-c2ccccc2)c1 [Example 43, N-(4-chlorobenzo [d]isoxazol-3-yl)-[1,1-biphenyl]-3-sulfonamide] |
| 10.6 µM | 60.2 µM | 10.8 µM | O=S(=O)(Nc1noc2cccc(Cl)c12)c1ccc2c(c1)CCC2 [Example 44, N-(4-chlorobenzo [d]isoxazol-3-yl)-2,3-dihydro-1H-indene-5-sulfonamide] |
| 2.08 µM | 34.3 µM | 6.83 µM | COc1ccc(Br)cc1S(=O)(=O)Nc1noc2cccc(Cl)c12 [Example 45] |
| 36.2 µM | > 125 µM | 74.4 µM | COc1ccc(OC)c(S(=O)(=O)Nc2noc3ccccc23)c1 [Example 46, N-(benzo[d]isoxazol-3-yl)-2,5-dimethoxybenzene-sulfonamide] |
| 12.9 µM | 123 µM | 29.4 µM | COc1ccc(C)cc1S(=O)(=O)Nc1noc2ccccc12 [Example 47, N-(benzo[d]isoxazol-3-yl)-2-methoxy-5-methyl benzene sulfonamide] |
| 7.41 µM | 92.9 µM | 54.8 µM | COc1ccc(C(C)(C)C)cc1S(=O)(=O)Nc1noc2ccccc12 [Example 48, N-(benzo[d]isoxazol-3-yl)-5-(tert-butyl)-2-methoxy benzene sulfonamide] |
| 8.13 µM | 74.6 µM | 77.8 µM | COc1ccc(C(C)C)cc1S(=O)(=O)Nc1noc2ccccc12 [Example 49, N-(benzo[d]isoxazol-3-yl)-5-isopropyl-2-methoxy benzene sulfonamide] |
| 123 µM | > 125 µM | > 125 µM | COC(=O)c1ccc(OC)c(S(=O)(=O)Nc2noc3ccccc23)c1 [Example 50, methyl 3-(N-(benzo[d]isoxazol-3-yl)sulfamoyl)-4-methoxy benzoate] |
| 15 µM | 87.7 µM | 28.3 µM | COc1cc(C)c(Cl)cc1S(=O)(=O)Nc1noc2ccccc12 [Example 51, N-(benzo[d]isoxazol-3-yl)-5-chloro-2-methoxy-4-methylbenzene sulfonamide] |
| 85.3 µM | > 125 µM | > 125 µM | CCc1cccc(S(=O)(=O)Nc2noc3ccccc23)c1 [Example 52, N-(benzo[d]isoxazol-3-yl)-3-ethylbenzene sulfonamide] |
| 90.7 µM | > 125 µM | > 125 µM | CCc1ccc(S(=O)(=O)Nc2noc3ccccc23)cc1 [Example 53, N-(benzo[d]isoxazol-3-yl)-4-ethylbenzene sulfonamide] |
| 63 µM | > 125 µM | > 125 µM | COc1ccc(-n2cccn2)cc1S(=O)(=O)Nc1noc2ccccc12 [Example 54, N-(benzo[d]isoxazol-3-yl)-2-methoxy-5-(1H-pyrazol-1-yl)benzene sulfonamide] |
| 103 µM | > 125 µM | > 125 µM | COc1ccc(-c2ccno2)cc1S(=O)(=O)Nc1noc2ccccc12 [Example 55, N-(benzo[d]isoxazol-3-yl)-5-(isoxazol-5-yl)-2-methoxybenzene sulfonamide] |
| 72.8 µM | > 125 µM | > 125 µM | CCc1ccc(CC)c(S(=O)(=O)Nc2noc3ccccc23)c1 [Example 56, N-(benzo[d]isoxazol-3-yl)-2,5-diethylbenzene sulfonamide] |
| 56.2 µM | > 125 µM | > 125 µM | CCOc1ccc(CC)cc1S(=O)(=O)Nc1noc2ccccc12 [Example 57, N-(benzo[d]isoxazol-3-yl)-2-ethoxy-5-ethylbenzene sulfonamide] |
| 28.4 µM | > 125 µM | 16.6 µM | COc1ccccc1S(=O)(=O)Nc1noc2ccccc12 [Example 58, N-(benzo[d]isoxazol-3-yl)-2-methoxybenzene sulfonamide] |
| 49.4 µM | > 125 µM | > 125 µM | Cc1c(Cl)cccc1S(=O)(=O)Nc1noc2ccccc12 [Example 59, N-(benzo[d]isoxazol-3-yl)-3-chloro-2-methylbenzene-sulfonamide] |
